In article PMC7177946, “Effect of Ferulic Acid, a Phenolic Inducer of Fungal Laccase, on 26S Proteasome Activities In Vitro” (International Journal of Molecular Sciences, 2020):

Experiments:
[1] = biological target: T1, human 26S proteasome, trypsin-like (TL) site, β2 subunit (Homo sapiens, UniProt Q99436); experiment: fluorogenic peptidase assay, Z-GGR-AMC; format: biochemical; settings: read-out: % inhibition at 1 mM
T1 construct: gene PSMB7; commercial purified 26S complex (BostonBiochem); beta subunits mature with N-terminal Thr; with Proteasome subunit beta type-5; Proteasome subunit beta type-6
T1 sequence (Q99436 44-277): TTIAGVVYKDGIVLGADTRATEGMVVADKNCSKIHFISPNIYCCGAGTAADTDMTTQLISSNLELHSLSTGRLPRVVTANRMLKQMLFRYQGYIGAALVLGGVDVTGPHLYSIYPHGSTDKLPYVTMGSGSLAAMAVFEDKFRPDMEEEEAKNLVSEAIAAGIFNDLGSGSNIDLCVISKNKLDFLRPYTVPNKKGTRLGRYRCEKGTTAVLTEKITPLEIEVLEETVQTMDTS

[2] = biological target: T2, human 26S proteasome, chymotrypsin-like (CHTL) site, β5 subunit (Homo sapiens, UniProt P28074); experiment: fluorogenic peptidase assay, Suc-LLVY-AMC; format: biochemical; settings: read-out: % inhibition at 1 mM
T2 construct: gene PSMB5; commercial purified 26S complex (BostonBiochem); beta subunits mature with N-terminal Thr; with Proteasome subunit beta type-7; Proteasome subunit beta type-6
T2 sequence (P28074 60-263): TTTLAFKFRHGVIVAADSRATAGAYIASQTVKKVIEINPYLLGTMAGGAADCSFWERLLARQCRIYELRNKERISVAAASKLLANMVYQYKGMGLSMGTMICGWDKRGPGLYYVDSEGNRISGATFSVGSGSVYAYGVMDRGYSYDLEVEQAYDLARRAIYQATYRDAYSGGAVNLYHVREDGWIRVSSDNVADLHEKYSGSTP

`COc1cc(/C=C/C(=O)O)ccc1O` [ferulic acid, 4-hydroxy-3-methoxycinnamic acid] showed an inhibition at 1000 µM [1] of 30% and an inhibition at 1000 µM [2] of 31%.
